Results on 22 compounds are retold here after patent publication US20100137388A1, “Therapeutic Pro-Antibiotic Agents and Methods of Use Thereof” (priority 2007, published 2010).

Converted amounts (≈) assume the structure as drawn.

One series deals with E. coli LpxA (Escherichia coli, UniProt P0A722). The series is described as follows: LpxA enzyme inhibition (TLC of radiolabeled UDP-GlcNAc acylation). The conditions noted are these: percentage of control, lower is better; for % LpxA activity (500 μM) / remaining activity at 500 µM (stock): test compound dilution 500 μM; for % LpxA activity (5 mM) / remaining activity at 5000 µM (stock): test compound dilution 5 mM. In kind it is biochemical. The protocol:
Measurement of LpxA activity was based on increased mobility of radiolabeled UDP-N-acetyl-D-glucosamine on thin layer chromatography (TLC) plates upon acylation. One μl of test compound of appropriate dilution in ethanol was mixed with 2.5 μM β-hydroxy-myristoyl-ACP and 0.5 μM E. coli LpxA in 1% bovine serum albumin and 40 mM Na-Hepes (pH 8.0) at room temperature (total volume 8 μl). The reaction was initiated by adding 2 μl of UDP-[^3H]N-acetyl-D-glucosamine and aliquots were removed at various time intervals and spotted directly on silica gel G plates.
The procedure as given above was followed, with the appropriate dilutions of test compound being 5 mM and 500 μM.

The subject of series [1] is E. coli D22 mutant strain. Nature of the series: Antibiotic MIC, NCCLS M7-A6 broth microdilution. In kind it is cell-based. The conditions noted are these: range tested 1 μM-2 mM. The protocol: (§1) Susceptibilities to the compounds were determined using the National Committee for Clinical Laboratory Standards (NCCLS) M7-A6 broth microdilution method. Cation-adjusted Mueller-Hinton broth (Ca^2+, 25 μg/mL; Mg^2+, 12.5 μg/mL) microdilution panels were prepared to contain antimicrobial doubling dilution concentrations of an appropriate range. DMSO (dimethylsulfoxide) controls were incorporated into the panel to mimic the quantity of DMSO used in dissolving some of the compounds at the higher concentrations. Each final panel well volume was 100 μL with a bacterial inoculum of 5×10^5 CFU (colony forming units)/mL. Panels were read following 16 to 20 h of incubation at 35 degrees Celsius in ambient air. The MIC (minimum inhibitory concentration) was defined as the lowest concentration of antimicrobial inhibiting visible growth.
(§2) Procedure followed was as described above, with the appropriate range being 1 μM-2 mM and using the E. coli D22 mutant strain and the E. coli K12 wild type strain. Value recorded was the lowest concentration of compound needed to produce the bactericidal or bacteriostatic effect (lower is better): […]

Series [2] relates to E. coli K12 wild type strain. Nature of the series: Antibiotic MIC, NCCLS M7-A6 broth microdilution. It counts as cell-based. The conditions noted are these: range tested 1 μM-2 mM. Here is the method:
as §1, §2

Another series relates to mice. The conditions noted are these: mouse, in vivo.
Series [3] concerns E. coli K12 wild type strain. Nature of the series: Pro-antibiotic MIC of antibiotic agents alone and with DNM0195. It counts as cell-based. The conditions noted are these: antibiotic agent alone. The protocol:
as §1, with “DMSO (dimethylsulfoxide) controls were incorporated into the panel to mimic the quantity of DMSO used in dissolving some of the compounds at the higher concentrations.” left out
Following Example 24, MICs of various antibiotic agents were determined against the E. coli K12 wild type strain, using the same procedure with the appropriate range for each antibiotic. For erythromycin, gentamicin, and kanamycin, this range was 0.24 μg/mL-500 μg/mL. Parallel to this effort, solutions were prepared which were identical. To each of these were added 0.5 μL of DNM0195 stock solution and mixed to produce a final concentration of 500 μM for determination of pro-antibiotic activity.

The mark [4] stands for this setting: Escherichia coli, read-out: MIC.

Sequence of E. coli LpxA (P0A722 whole entry): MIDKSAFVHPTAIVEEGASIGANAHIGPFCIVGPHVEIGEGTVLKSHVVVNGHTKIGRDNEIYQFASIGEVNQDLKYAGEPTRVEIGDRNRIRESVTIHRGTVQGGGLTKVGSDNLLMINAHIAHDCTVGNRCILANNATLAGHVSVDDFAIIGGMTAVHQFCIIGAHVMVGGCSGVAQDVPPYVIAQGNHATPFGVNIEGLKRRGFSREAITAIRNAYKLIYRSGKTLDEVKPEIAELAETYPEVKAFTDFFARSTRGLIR

The MIC is the lowest concentration that inhibits growth of the organism. `COC(=O)/C=C/c1cc(-c2nnn[nH]2)c(Cc2ccccc2)s1` [DNM0194, (Z) and (E)-methyl 3-(5-benzyl-4-(1H-tetrazol-5-yl)thiophen-2-yl)acrylate]: on E. coli LpxA, the “% LpxA activity (500 μM)” value is 36.0% and the “% LpxA activity (5 mM)” value turned out to be 1.4%. In series [1], the MIC was 1000 to 2000 µM.

With `O=C(O)/C=C/c1cc(-c2nnn[nH]2)c(Cc2ccccc2)s1` [DNM0195, (Z) and (E)-3-(5-benzyl-4-(1H-tetrazol-5-yl)thiophen-2-yl)acrylic acid], on E. coli LpxA, the “% LpxA activity (500 μM)” value was determined as 7.6% and the “% LpxA activity (5 mM)” value is listed as 3.1%. The compound further showed an MIC in series [1] of 1000 µM (≈ 312 µg/mL). The compound also returned a minimum inhibitory concentration (MIC) in series [2] of 1000 to 2000 µM. In the series with mice, the Liver biopsies entry was “normal”.

Usually remaining activity stands for the signal under treatment as a percentage of the control signal. As for `Cn1nnnc1-c1cc(/C=C/C(=O)O)sc1Cc1ccccc1` [DNM0196, (E)-3-(5-benzyl-4-(1-methyl-1H-tetrazol-5-yl)thiophen-2-yl)acrylic acid], on E. coli LpxA, the remaining activity at 500 µM (stock) was 43.9% and the remaining activity at 5000 µM (stock) is 5.8%.

Turning to `Cn1nnc(-c2cc(/C=C/C(=O)O)sc2Cc2ccccc2)n1` [DNM0197, (E)-3-(5-benzyl-4-(2-methyl-2H-tetrazol-5-yl)thiophen-2-yl)acrylic acid], at E. coli LpxA, the remaining activity at 500 µM (stock) was determined as 62.4% and the remaining activity at 5000 µM (stock) is 20.2%.

For `O=C(O)/C=C/c1cc(-c2nnn[nH]2)c(-c2ccc(F)cc2)s1` [DNM0224, (E)-3-(5-(4-fluorophenyl)-4-(1H-tetrazol-5-yl)thiophen-2-yl)acrylic acid], at E. coli LpxA, the remaining activity at 500 µM (stock) came to 88.7% and the remaining activity at 5000 µM (stock) worked out at 37.9%.

With `O=C(O)/C=C/c1cc(-c2nnn[nH]2)c(-c2ccc(-c3ccccc3)cc2)s1` [DNM0225, (E)-3-(5-(4-biphenylyl)-4-(1H-tetrazol-5-yl)thiophen-2-yl)acrylic acid], on E. coli LpxA, the remaining activity at 500 µM (stock) came to 84.9% and the remaining activity at 5000 µM (stock) worked out at 7.3%.

`COC(=O)/C=C/c1cc(-c2nnn(C)n2)c(Cc2ccccc2)s1` [DNM0226, (E)-methyl 3-(5-benzyl-4-(2-methyl-2H-tetrazol-5-yl)thiophen-2-yl)acrylate]: at E. coli LpxA, the remaining activity at 500 µM (stock) was determined as 97% and the remaining activity at 5000 µM (stock) was 93%.

As for `COC(=O)/C=C/c1cc(-c2nnnn2C)c(Cc2ccccc2)s1` [DNM0227, (E)-methyl 3-(5-benzyl-4-(1-methyl-1H-tetrazol-5-yl)thiophen-2-yl)acrylate], at E. coli LpxA, the remaining activity at 500 µM (stock) is 92.1% and the remaining activity at 5000 µM (stock) was determined as 86.6%.

Regarding `COC(=O)/C=C/c1sc(-c2ccc(F)cc2)cc1-c1nnn[nH]1` [DNM0229, (E)-methyl 3-(5-(4-fluorophenyl)-3-(1H-tetrazol-5-yl)thiophen-2-yl)acrylate], at E. coli LpxA, the remaining activity at 500 µM (stock) amounted to 57.8% and the remaining activity at 5000 µM (stock) stood at 4%.

Take `Cn1nnnc1-c1cc(-c2ccc(F)cc2)sc1/C=C/C(=O)O` [DNM0233, (E)-3-(5-(4-fluorophenyl)-3-(1-methyl-1H-tetrazol-5-yl)thiophen-2-yl)acrylic acid]: on E. coli LpxA, the remaining activity at 500 µM (stock) amounted to 98.8% and the remaining activity at 5000 µM (stock) came to 47.3%.

For `COC(=O)/C=C/c1cc(-c2nnn[nH]2)c(-c2cccc3ccccc23)s1` [DNM0234, (E)-methyl 3-(5-(naphthalen-1-yl)-4-(1H-tetrazol-5-yl)thiophen-2-yl)acrylate], at E. coli LpxA, the remaining activity at 500 µM (stock) is 92.1% and the remaining activity at 5000 µM (stock) was 1.1%.

On to `O=C(O)/C=C/c1cc(-c2nnn[nH]2)c(-c2cccc3ccccc23)s1` [DNM0235, (E)-3-(5-(naphthalen-1-yl)-4-(1H-tetrazol-5-yl)thiophen-2-yl)acrylic acid], for which, on E. coli LpxA, the remaining activity at 500 µM (stock) amounted to 59.6% and the remaining activity at 5000 µM (stock) came to 7.3%.

Turning to `COC(=O)/C=C/c1sc(-c2ccc(-c3ccccc3)cc2)cc1-c1nnn[nH]1` [DNM0240, (E)-methyl 3-(5-(4-biphenyl)-3-(1H-tetrazol-5-yl)thiophen-2-yl)acrylate], at E. coli LpxA, the “% LpxA activity (500 μM)” value was 90.7% and the “% LpxA activity (5 mM)” value turned out to be 6.6%.

Take `COC(=O)/C=C/c1sc(Cc2ccccc2)cc1-c1nnn[nH]1` [DNM0243, (E)-methyl 3-(5-benzyl-3-(1H-tetrazol-5-yl)thiophen-2-yl)acrylate]: on E. coli LpxA, the remaining activity at 500 µM (stock) came out at 69.2% and the remaining activity at 5000 µM (stock) came to 0.9%.

Consider `O=C(O)/C=C/c1sc(-c2ccc(-c3ccccc3)cc2)cc1-c1nnn[nH]1` [DNM0245, (E)-3-(5-(biphenyl-4-yl)-3-(1H-tetrazol-5-yl)thiophen-2-yl)acrylic acid], for which, at E. coli LpxA, the remaining activity at 500 µM (stock) stood at 78.5% and the remaining activity at 5000 µM (stock) came to 4.4%.

As to `O=C1NC(=O)C(=Cc2sc(Cc3ccccc3)cc2-c2nnn[nH]2)S1` [DNM0246, 5-((5-benzyl-3-(1H-tetrazol-5-yl)thiophen-2-yl)methylene)thiazolidine-2,4-dione], at E. coli LpxA, the remaining activity at 500 µM (stock) was 165% and the remaining activity at 5000 µM (stock) was 10.3%.

Regarding `O=C(O)/C=C/c1cc(-c2nnn(CCC(=O)O)n2)c(Cc2ccccc2)s1` [DNM0252, (E)-3-(5-benzyl-4-(2-(2-carboxyethyl)-2H-tetrazol-5-yl)thiophen-2-yl)acrylic acid], at E. coli LpxA, the remaining activity at 500 µM (stock) worked out at 62.9% and the remaining activity at 5000 µM (stock) was 5.1%.

As for `O=C(O)C(=Cc1cc(-c2nnn[nH]2)c(Cc2ccccc2)s1)C(=O)O` [DNM0264, 2-((5-benzyl-4-(1H-tetrazol-5-yl)thiophen-2-yl)methylene)malonic acid], at E. coli LpxA, the remaining activity at 500 µM (stock) amounted to 56.8% and the remaining activity at 5000 µM (stock) worked out at 5.4%.

As to `O=C(O)/C=C/c1cccc(Cc2sc(/C=C/C(=O)O)cc2-c2nnn[nH]2)c1` [DNM0270, (E)-3-(3-((5-((E)-2-carboxyvinyl)-3-(1H-tetrazol-5-yl)thiophen-2-yl)methyl)phenyl)acrylic acid], at E. coli LpxA, the remaining activity at 500 µM (stock) turned out to be 89.7% and the remaining activity at 5000 µM (stock) was found to be 3%.

On to `CC[C@H]1OC(=O)[C@H](C)[C@@H](O[C@H]2C[C@@](C)(OC)[C@@H](O)[C@H](C)O2)[C@H](C)[C@@H](O[C@@H]2O[C@H](C)C[C@H](N(C)C)[C@H]2O)[C@](C)(O)C[C@@H](C)C(=O)[C@H](C)[C@@H](O)[C@]1(C)O` [Erythromycin], for which, in series [3] (setting [4]), the MIC worked out at 62.5 µg/mL.

In the case of `NC[C@H]1O[C@H](O[C@H]2[C@H](O)[C@@H](O[C@H]3O[C@H](CO)[C@@H](O)[C@H](N)[C@H]3O)[C@H](N)C[C@@H]2N)[C@H](O)[C@@H](O)[C@@H]1O` [Kanamycin], the minimum inhibitory concentration (MIC) in series [3] (setting [4]) worked out at 3.12 µg/mL.

Consider Gentamicin, for which, in series [3], the MIC was found to be 0.39 µg/mL.
